How the values were obtained:
bedstraw = test: Test B pre/postemergence bedstraw; format: in vivo, Galium aparine
Outline: (§1)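 Response is a visual 0-to-10 score relative to untreated plants, where 0 means no effect and 10 means complete control, taken twelve to sixteen days after application. Treatments went onto soil at planting and onto foliage of 1- to 4-leaf plants, using a surfactant-containing non-phytotoxic solvent.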

blackgrass = test: Test B pre/postemergence blackgrass; format: in vivo, Alopecurus myosuroides
Outline: as §1

soybean = test: Test B pre/postemergence soybean; format: in vivo, Glycine max
Outline: as §1

velvetleaf = test: Test B pre/postemergence velvetleaf; format: in vivo, Abutilon theophrasti
Outline: as §1

[1] = Rate 62 g/ha, Postemergence, scale 0 to 10 (0 no effect, 10 complete control)
[2] = Rate 125 g/ha, Postemergence, scale 0 to 10, 0 is no effect, 10 is complete control
[3] = Postemergence, Rate 250 g/ha, scale 0 to 10
[4] = Postemergence, Rate 500 g/ha, scale of 0 to 10 where 0 is no effect and 10 is complete control
[5] = Preemergence, Rate 62 g/ha, scale of 0 to 10 where 0 is no effect and 10 is complete control
[6] = Preemergence, Rate 125 g/ha, scale of 0 to 10 where 0 is no effect and 10 is complete control
[7] = Preemergence, Rate 250 g/ha, scale 0 to 10, 0 is no effect, 10 is complete control
[8] = Preemergence, Rate 500 g/ha, scale 0 to 10, 0 is no effect, 10 is complete control
[9] = Preemergence, Rate 250 g/ha, scale 0 to 10 (0 no effect, 10 complete control)
[10] = Preemergence, Rate 500 g/ha, scale of 0 to 10 where 0 is no effect and 10 is complete control
[11] = Postemergence, Rate 62 g/ha, scale 0 to 10, 0 is no effect, 10 is complete control
[12] = Postemergence, Rate 125 g/ha, scale of 0 to 10 where 0 is no effect and 10 is complete control
[13] = Postemergence, Rate 250 g/ha, scale of 0 to 10, 0 is no effect, 10 is complete control
[14] = Rate 500 g/ha, Postemergence, scale 0 to 10, 0 is no effect, 10 is complete control
[15] = Rate 1000 g/ha, Preemergence, scale 0 to 10 (0 no effect, 10 complete control)
[16] = Postemergence, Rate 1000 g/ha, scale 0 to 10 (0 no effect, 10 complete control)
[17] = Preemergence, Rate 250 g/ha, scale of 0 to 10 where 0 is no effect and 10 is complete control
[18] = Rate 125 g/ha, Postemergence, scale of 0 to 10 where 0 is no effect and 10 is complete control
[19] = Rate 250 g/ha, Postemergence, scale of 0 to 10 where 0 is no effect and 10 is complete control
[20] = Rate 500 g/ha, Postemergence, scale 0 to 10, 0 no effect, 10 complete control

CC(C)N(C(=O)n1oc(=O)n(CO)c1=O)c1ccc(F)cc1 [Compound 470]
Bedstraw plant response rating (bedstraw; [1]): 0
Bedstraw plant response rating (bedstraw; [2]): 0
Blackgrass plant response rating (blackgrass; [3]): 0
Blackgrass plant response rating (blackgrass; [4]): 0
Plant response rating, Blackgrass (blackgrass; [5]): 0
Plant response rating, Blackgrass (blackgrass; [6]): 0
Blackgrass plant response rating (blackgrass; [7]): 7
Blackgrass plant response rating (blackgrass; [1]): 0
Blackgrass plant response rating (blackgrass; [2]): 0
Soybean plant response rating (soybean; [3]): 1
Plant response rating, Soybean (soybean; [5]): 0
Plant response rating, Soybean (soybean; [6]): 0
Soybean plant response rating (soybean; [7]): 0
Soybean plant response rating (soybean; [8]): 0
Soybean plant response rating (soybean; [1]): 0
Soybean plant response rating (soybean; [2]): 0
Velvetleaf plant response rating (velvetleaf; [3]): 0
Plant response rating, Velvetleaf (velvetleaf; [5]): 0
Plant response rating, Velvetleaf (velvetleaf; [6]): 0
Velvetleaf plant response rating (velvetleaf; [7]): 0
Velvetleaf plant response rating (velvetleaf; [8]): 0
Velvetleaf plant response rating (velvetleaf; [1]): 0
Velvetleaf plant response rating (velvetleaf; [2]): 0

C#CC=CC(C)(C)n1c(=O)on(C(=O)N(c2ccccc2)C(C)C)c1=O [Compound 655]
Bedstraw plant response rating (bedstraw; [5]): 0
Bedstraw plant response rating (bedstraw; [6]): 0
Plant response rating, Bedstraw (bedstraw; [9]): 0
Plant response rating, Bedstraw (bedstraw; [10]): 0
Plant response rating, Blackgrass (blackgrass; [11]): 0
Blackgrass plant response rating (blackgrass; [12]): 0
Blackgrass plant response rating (blackgrass; [13]): 0
Blackgrass plant response rating (blackgrass; [5]): 0
Blackgrass plant response rating (blackgrass; [6]): 0
Plant response rating, Blackgrass (blackgrass; [9]): 2
Plant response rating, Blackgrass (blackgrass; [10]): 3
Blackgrass plant response rating (blackgrass; [14]): 3
Plant response rating, Soybean (soybean; [11]): 2
Soybean plant response rating (soybean; [12]): 2
Soybean plant response rating (soybean; [5]): 0
Soybean plant response rating (soybean; [6]): 0
Plant response rating, Soybean (soybean; [9]): 0
Plant response rating, Soybean (soybean; [10]): 0
Soybean plant response rating (soybean; [14]): 4
Plant response rating, Velvetleaf (velvetleaf; [11]): 0
Velvetleaf plant response rating (velvetleaf; [12]): 0
Velvetleaf plant response rating (velvetleaf; [5]): 0
Velvetleaf plant response rating (velvetleaf; [6]): 0
Plant response rating, Velvetleaf (velvetleaf; [9]): 0
Plant response rating, Velvetleaf (velvetleaf; [10]): 0
Velvetleaf plant response rating (velvetleaf; [14]): 0

CCOP(=O)(Cn1c(=O)on(C(=O)N(c2ccc(Cl)cc2)C(C)C)c1=O)OCC [Compound 599]
Bedstraw plant response rating (bedstraw; [6]): 0
Bedstraw plant response rating (0 to 10 scale) (bedstraw; Preemergence, Rate 250 g/ha): 0
Bedstraw plant response rating (bedstraw; [10]): 0
Plant response rating, Bedstraw (bedstraw; [15]): 8
Plant response rating, Blackgrass (blackgrass; [12]): 0
Blackgrass plant response rating (blackgrass; [13]): 0
Plant response rating, Blackgrass (blackgrass; [4]): 0
Blackgrass plant response rating (blackgrass; [16]): 6
Blackgrass plant response rating (blackgrass; [6]): 0
Blackgrass plant response rating (0 to 10 scale) (blackgrass; Preemergence, Rate 250 g/ha): 3
Blackgrass plant response rating (blackgrass; [10]): 6
Plant response rating, Blackgrass (blackgrass; [15]): 8
Plant response rating, Soybean (soybean; [12]): 2
Soybean plant response rating (soybean; [13]): 2
Plant response rating, Soybean (soybean; [4]): 2
Soybean plant response rating (soybean; [16]): 4
Soybean plant response rating (soybean; [6]): 0
Plant response rating, Soybean (soybean; [10]): 0
Plant response rating, Soybean (soybean; [15]): 0
Plant response rating, Velvetleaf (velvetleaf; [12]): 0
Velvetleaf plant response rating (velvetleaf; [13]): 0
Plant response rating, Velvetleaf (velvetleaf; [4]): 0
Velvetleaf plant response rating (velvetleaf; [16]): 3
Velvetleaf plant response rating (velvetleaf; [6]): 0
Plant response rating, Velvetleaf (velvetleaf; [10]): 0
Plant response rating, Velvetleaf (velvetleaf; [15]): 0

CC(C)N(C(=O)n1oc(=O)n(CC(=O)N(C)C)c1=O)c1ccc(Cl)cc1 [Compound 477]
Plant response rating, Bedstraw (bedstraw; [5]): 0
Bedstraw plant response rating (bedstraw; [8]): 3
Bedstraw plant response rating (bedstraw; [2]): 0
Blackgrass plant response rating (blackgrass; [3]): 6
Blackgrass plant response rating (blackgrass; [4]): 6
Plant response rating, Blackgrass (blackgrass; [5]): 0
Plant response rating, Blackgrass (blackgrass; [6]): 1
Blackgrass plant response rating (blackgrass; [7]): 7
Blackgrass plant response rating (blackgrass; [8]): 8
Blackgrass plant response rating (blackgrass; [1]): 0
Blackgrass plant response rating (blackgrass; [2]): 0
Soybean plant response rating (soybean; [3]): 2
Plant response rating, Soybean (soybean; [5]): 0
Plant response rating, Soybean (soybean; [6]): 0
Soybean plant response rating (soybean; [7]): 3
Soybean plant response rating (soybean; [8]): 4
Soybean plant response rating (soybean; [1]): 1
Soybean plant response rating (soybean; [2]): 1
Velvetleaf plant response rating (velvetleaf; [3]): 0
Plant response rating, Velvetleaf (velvetleaf; [5]): 0
Plant response rating, Velvetleaf (velvetleaf; [6]): 0
Velvetleaf plant response rating (velvetleaf; [7]): 0
Velvetleaf plant response rating (velvetleaf; [8]): 0
Velvetleaf plant response rating (velvetleaf; [1]): 0
Velvetleaf plant response rating (velvetleaf; [2]): 0

Cc1ccccc1-n1c(=O)on(C(=O)N(c2ccc(OC(F)(F)F)cc2)C(C)C)c1=O [Compound 300]
Bedstraw plant response rating (bedstraw; [17]): 0
Bedstraw plant response rating (bedstraw; [10]): 8
Bedstraw plant response rating (bedstraw; [1]): 0
Bedstraw plant response rating (bedstraw; [18]): 0
Plant response rating, Bedstraw (bedstraw; [19]): 0
Bedstraw plant response rating (bedstraw; [20]): 0
Blackgrass plant response rating (blackgrass; [5]): 0
Blackgrass plant response rating (0 to 10 scale) (blackgrass; Preemergence, Rate 125 g/ha): 0
Blackgrass plant response rating (blackgrass; [17]): 0
Blackgrass plant response rating (blackgrass; [10]): 0
Blackgrass plant response rating (blackgrass; [1]): 0
Blackgrass plant response rating (blackgrass; [18]): 0
Plant response rating, Blackgrass (blackgrass; [19]): 0
Blackgrass plant response rating (blackgrass; [20]): 0
Soybean plant response rating (soybean; [5]): 0
Soybean plant response rating (0 to 10 scale) (soybean; Preemergence, Rate 125 g/ha): 0
Soybean plant response rating (soybean; [17]): 0
Soybean plant response rating (soybean; [10]): 0
Soybean plant response rating (soybean; [1]): 1
Soybean plant response rating (soybean; [18]): 2
Plant response rating, Soybean (soybean; [19]): 2
Velvetleaf plant response rating (velvetleaf; [5]): 0
Velvetleaf plant response rating (0 to 10 scale) (velvetleaf; Preemergence, Rate 125 g/ha): 0
Velvetleaf plant response rating (velvetleaf; [17]): 0
Velvetleaf plant response rating (velvetleaf; [10]): 0
Velvetleaf plant response rating (velvetleaf; [1]): 0
Velvetleaf plant response rating (velvetleaf; [18]): 0
Plant response rating, Velvetleaf (velvetleaf; [19]): 0
